Measurements reported in patent US7772263B2, “Compounds for the treatment of inflammatory disorders” (Schering Corporation, priority 2006, dated 2010).

Each compound was assayed against T1, purified catalytic domain of recombinant human TACE (rhTACEc) (Homo sapiens, UniProt P78536, N452Q/S266A) (assay: TACE kinetic assay, cleavage of internally quenched fluorescent peptide substrate SPDL-3). Settings: TACE; class letters A-D; read-out: Ki Rating.
T1 construct: rhTACEc, Residue 215 to 477 with two mutation (S266A and N4520) and a 6×His tail; 6xHis (C); made in house; host or cells: baculovirus/Hi5 insect cells
T1 sequence (P78536 215-477 S266A/N452Q limits assumed): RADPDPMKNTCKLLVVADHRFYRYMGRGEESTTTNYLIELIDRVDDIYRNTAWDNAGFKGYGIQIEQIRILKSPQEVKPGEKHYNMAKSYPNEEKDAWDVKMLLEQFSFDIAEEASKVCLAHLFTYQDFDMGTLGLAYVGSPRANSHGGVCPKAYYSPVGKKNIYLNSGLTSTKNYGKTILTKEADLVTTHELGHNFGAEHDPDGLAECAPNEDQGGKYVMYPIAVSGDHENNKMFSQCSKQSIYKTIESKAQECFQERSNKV
Format: biochemical

Ki [nM] | SMILES
< 5 | COc1ccc2c(c1)C(=O)N(C[C@@]1(C#Cc3ccc4c(c3)OCO4)NC(=O)NC1=O)C2 [Compound 1139]
< 5 | COc1ccc2c(c1)C(=O)N(C[C@@]1(C#Cc3ccc(Cl)c(C(=O)O)c3)NC(=O)NC1=O)C2 [Compound 1140]
< 5 | CNC(=O)c1ccc(C#C[C@]2(CN3Cc4ccc(OC)cc4C3=O)NC(=O)NC2=O)cc1 [Compound 1141]
< 5 | COc1ccc2c(c1)C(=O)N(C[C@@]1(C#Cc3ccc(C(=O)NCCN(C)C)cc3)NC(=O)NC1=O)C2 [Compound 1142]
< 5 | COc1ccc2c(c1)C(=O)N(C[C@@]1(C#Cc3ccc(Cl)c(C(=O)NCCN(C)C)c3)NC(=O)NC1=O)C2 [Compound 1143]
< 5 | CNC(=O)c1cc(C#C[C@]2(CN3Cc4ccc(OC)cc4C3=O)NC(=O)NC2=O)ccc1Cl [Compound 1144]
< 5 | COc1ccc2c(c1)C(=O)N(C[C@@]1(C#Cc3ccc(C(=O)N4CCOCC4)cc3)NC(=O)NC1=O)C2 [Compound 1145]
< 5 | COc1ccc2c(c1)C(=O)N(C[C@@]1(C#Cc3ccccc3Cl)NC(=O)NC1=O)C2 [Compound 1146]
< 5 | COc1cccc(C#C[C@]2(CN3Cc4ccc(OC)cc4C3=O)NC(=O)NC2=O)c1 [Compound 1147]
< 5 | COc1ccc2c(c1)C(=O)N(C[C@@]1(C#Cc3cccc(OC(F)F)c3)NC(=O)NC1=O)C2 [Compound 1148]
< 5 | COc1ccc2c(c1)C(=O)N(C[C@@]1(C#Cc3ccc(F)c(OC)c3)NC(=O)NC1=O)C2 [Compound 1149]
< 5 | COc1ccc2c(c1)C(=O)N(C[C@@]1(C#Cc3ccc(F)c(O)c3)NC(=O)NC1=O)C2 [Compound 1150]
< 5 | COc1ccc2c(c1)C(=O)N(C[C@@]1(C#Cc3ccc(F)c(C(N)=O)c3)NC(=O)NC1=O)C2 [Compound 1151]
< 5 | COc1ccc2c(c1)C(=O)N(C[C@@]1(C#Cc3ccc(N)nc3)NC(=O)NC1=O)C2 [Compound 1152]
< 5 | COc1ccc2c(c1)C(=O)N(C[C@@]1(C#Cc3ccc(N4CCOCC4)nc3)NC(=O)NC1=O)C2 [Compound 1153]
< 5 | COc1ccc2c(c1)C(=O)N(C[C@@]1(C#Cc3ccccc3C#N)NC(=O)NC1=O)C2 [Compound 1154]
< 5 | COc1ccc2c(c1)C(=O)N(C[C@@]1(C#Cc3ccc(C)nc3)NC(=O)NC1=O)C2 [Compound 1155]
< 5 | COc1ccc2c(c1)C(=O)N(C[C@@]1(C#Cc3ccc(C)cc3)NC(=O)NC1=O)C2 [Compound 1156]
< 5 | COc1ccc2c(c1)C(=O)N(C[C@@]1(C#Cc3ccc(NC(C)=O)nc3)NC(=O)NC1=O)C2 [Compound 1157]
< 5 | O=C1NC(=O)[C@@](C#Cc2cccnc2)(CN2Cc3ccc(F)cc3C2=O)N1 [Compound 1200]
< 5 | COc1ccc2c(c1)CN(C[C@@]1(C#Cc3cc(F)cc(F)c3)NC(=O)NC1=O)C2=O [Compound 1201]
< 5 | COc1ccc2c(c1)CN(C[C@@]1(C#Cc3ccc(F)cc3F)NC(=O)NC1=O)C2=O [Compound 1202]
< 5 | COc1ccc2c(c1)C(=O)N(C[C@@]1(C#Cc3ccc4occc4c3)NC(=O)NC1=O)C2 [Compound 1203]

Ki [nM] | SMILES
< 5 | COc1ccc2c(c1)C(=O)N(C[C@@]1(C#Cc3cn(C)c(=O)n(C)c3=O)NC(=O)NC1=O)C2 [Compound 1204]
< 5 | COc1ccc2c(c1)C(=O)N(C[C@@]1(C#Cc3c[nH]c(=O)[nH]c3=O)NC(=O)NC1=O)C2 [Compound 1205]
< 5 | COc1ccc2c(c1)C(=O)N(C[C@@]1(C#Cc3nc4ncnc(N)c4n3C)NC(=O)NC1=O)C2 [Compound 1208]
< 5 | O=C1NC(=O)[C@@](C#Cc2ccc3cnoc3c2)(CN2Cc3ccc(F)cc3C2=O)N1 [Compound 1211]
< 5 | COc1ccc2c(c1)C(=O)N(C[C@@]1(C#Cc3ccc4nn(C(C)C)cc4c3)NC(=O)NC1=O)C2 [Compound 1212]
< 5 | COc1ccc2c(c1)C(=O)N(C[C@@]1(C#Cc3ccc4c(cnn4C(C)C)c3)NC(=O)NC1=O)C2 [Compound 1213]
< 5 | COc1ccc2c(c1)C(=O)N(C[C@@]1(C#Cc3ccc4cnoc4c3)NC(=O)NC1=O)C2 [Compound 1214]
< 5 | COc1ccc2c(c1)C(=O)N(C[C@@]1(C#Cc3cncc(-c4nnn(C)n4)c3)NC(=O)NC1=O)C2 [Compound 1215]
< 5 | COc1ccc2c(c1)C(=O)N(C[C@@]1(C#Cc3ccc(N)c(OC(F)(F)F)c3)NC(=O)NC1=O)C2 [Compound 1216]
< 5 | COc1ccc2c(c1)C(=O)N(C[C@@]1(C#Cc3cc(F)c(F)cc3OC)NC(=O)NC1=O)C2 [Compound 1217]
< 5 | COc1ccc2c(c1)C(=O)N(C[C@@]1(C#Cc3ccc(F)cc3C#N)NC(=O)NC1=O)C2 [Compound 1218]
< 5 | COc1ccc2c(c1)C(=O)N(C[C@@]1(C#Cc3cc(C)ccc3C#N)NC(=O)NC1=O)C2 [Compound 1219]
< 5 | COc1ccc2c(c1)C(=O)N(C[C@@]1(C#Cc3ccc(-c4nnn(C)n4)s3)NC(=O)NC1=O)C2 [Compound 1220A]
< 5 | COc1ccc2c(c1)C(=O)N(C[C@@]1(C#Cc3ccc(C(C)=O)cc3)NC(=O)NC1=O)C2 [Compound 1220B]
> 100 | COc1ccc2c(c1)C(=O)N(C[C@@]1(C#Cc3ccc(S(C)(=O)=O)cc3)NC(=O)NC1=O)C2 [Compound 1220C]
< 5 | COc1ccc2c(c1)C(=O)N(C[C@@]1(C#Cc3ccc4c(c3)NC(=O)C4=O)NC(=O)NC1=O)C2 [Compound 1220D]
< 5 | COc1ccc2c(c1)C(=O)N(C[C@@]1(C#Cc3ncnc4[nH]ccc34)NC(=O)NC1=O)C2 [Compound 1220E]
< 5 | COc1ccc2c(c1)C(=O)N(C[C@@]1(C#Cc3cncc(-c4nnn(C(C)C)n4)c3)NC(=O)NC1=O)C2 [Compound 1220]
< 5 | COc1ccc2c(c1)C(=O)N(C[C@@]1(C#Cc3cccnc3C3CC3)NC(=O)NC1=O)C2 [Compound 1221]
< 5 | COc1ccc2c(c1)C(=O)N(C[C@@]1(C#Cc3cnccc3C3CC3)NC(=O)NC1=O)C2 [Compound 1222]
< 5 | COc1ccc2c(c1)C(=O)N(C[C@@]1(C#Cc3ccc(C(N)=O)c([N+](=O)[O-])c3)NC(=O)NC1=O)C2 [Compound 1250]
< 5 | COc1ccc2c(c1)C(=O)N(C[C@@]1(C#Cc3ccc4c(c3)C(=O)NC4)NC(=O)NC1=O)C2 [Compound 1251]
< 5 | COc1ccc2c(c1)C(=O)N(C[C@@]1(C#Cc3cccc4c3CNC4=O)NC(=O)NC1=O)C2 [Compound 1252]

Ki [nM] | SMILES
< 5 | COc1ccc2c(c1)C(=O)N(C[C@@]1(C#Cc3ccc4c(c3)CNC4=O)NC(=O)NC1=O)C2 [Compound 1253]
< 5 | COc1ccc2c(c1)C(=O)N(C[C@@]1(C#Cc3ccc(-c4cncnc4)nc3)NC(=O)NC1=O)C2 [Compound 1254]
< 5 | COc1ccc2c(c1)C(=O)N(C[C@@]1(C#Cc3cnc(-c4cccnc4)nc3)NC(=O)NC1=O)C2 [Compound 1256C]
< 5 | COc1ccc2c(c1)C(=O)N(C[C@@]1(C#Cc3ccc(-c4nnc(C)o4)nc3)NC(=O)NC1=O)C2 [Compound 1500]
< 5 | COc1ccc2c(c1)C(=O)N(C[C@@]1(C#Cc3ccc(-c4nnc(N)o4)nc3)NC(=O)NC1=O)C2 [Compound 1501]
< 5 | CCNc1nnc(-c2ccc(C#C[C@]3(CN4Cc5ccc(OC)cc5C4=O)NC(=O)NC3=O)cn2)o1 [Compound 1502]
< 5 | COc1ccc2c(c1)C(=O)N(C[C@@]1(C#Cc3cnc4ccccn34)NC(=O)NC1=O)C2 [Compound 1503]
< 5 | COc1ccc2c(c1)C(=O)N(C[C@@]1(C#Cc3cnc4ccc(Br)cn34)NC(=O)NC1=O)C2 [Compound 1504]
< 5 | COc1ccc2c(c1)C(=O)N(C[C@@]1(C#Cc3ccc4nc(C)cn4c3)NC(=O)NC1=O)C2 [Compound 1505]
< 5 | COc1ccc2c(c1)C(=O)N(C[C@@]1(C#Cc3n[nH]c4ccccc34)NC(=O)NC1=O)C2 [Compound 1506]
< 5 | COc1ccc2c(c1)C(=O)N(C[C@@]1(C#Cc3cc(F)ccn3)NC(=O)NC1=O)C2 [Compound 1507]
< 5 | COc1ccc2c(c1)C(=O)N(C[C@@]1(C#Cc3c4ccccc4nn3C)NC(=O)NC1=O)C2 [Compound 1508]
< 5 | COc1ccc2c(c1)C(=O)N(C[C@@]1(C#Cc3cc(C)ccc3O)NC(=O)NC1=O)C2 [Compound 1509]
< 5 | COc1ccc2c(c1)C(=O)N(C[C@@]1(C#Cc3cnn4ccccc34)NC(=O)NC1=O)C2 [Compound 1510]
< 5 | COC(=O)c1cc(C#C[C@]2(CN3Cc4ccc(OC)cc4C3=O)NC(=O)NC2=O)ccn1 [Compound 1511]
< 5 | COc1ccc2c(c1)C(=O)N(C[C@@]1(C#Cc3ccnc(C(N)=O)c3)NC(=O)NC1=O)C2 [Compound 1512]
< 5 | COc1ccc2c(c1)C(=O)N(C[C@@]1(C#Cc3ccc(C(N)=O)nc3)NC(=O)NC1=O)C2 [Compound 1513]
< 5 | COC(=O)c1ccc(C#C[C@]2(CN3Cc4ccc(OC)cc4C3=O)NC(=O)NC2=O)cn1 [Compound 1514]
< 5 | COc1ccc2c(c1)C(=O)N(C[C@@]1(C#Cc3cnccc3C(N)=O)NC(=O)NC1=O)C2 [Compound 1515]
< 5 | COC(=O)c1ccncc1C#C[C@]1(CN2Cc3ccc(OC)cc3C2=O)NC(=O)NC1=O [Compound 1516]
< 5 | CNC(=O)c1ccc(C#C[C@]2(CN3Cc4ccc(OC)cc4C3=O)NC(=O)NC2=O)cn1 [Compound 1517]
< 5 | COc1ccc2c(c1)C(=O)N(C[C@@]1(C#Cc3ccc(C(=O)NC4CC4)nc3)NC(=O)NC1=O)C2 [Compound 1518]
< 5 | COc1ccc2c(c1)C(=O)N(C[C@@]1(C#Cc3cc(C)c(=O)n(C)c3)NC(=O)NC1=O)C2 [Compound 1519]

Same assay, conditions: rhTACEc 70 pM, 30 μM SPDL-3, 90 min pre-incubation at 25° C.; read-out: Ki (nM), TACE inhibitory activity

Ki [nM] | SMILES
0.03 | COc1ccc2c(c1)C(=O)N(C[C@@]1(C#Cc3ccc(N)nc3)NC(=O)NC1=O)C2 [Compound 1152]
0.41 | COc1ccc2c(c1)C(=O)N(C[C@@]1(C#Cc3ccc(C)nc3)NC(=O)NC1=O)C2 [Compound 1155]
0.03 | COc1ccc2c(c1)C(=O)N(C[C@@]1(C#Cc3ccc(C4(C)NC(=O)NC4=O)cc3)NC(=O)NC1=O)C2 (stereo partly shown) [Compound 1256]
0.094 | CCNc1nnc(-c2ccc(C#C[C@]3(CN4Cc5ccc(OC)cc5C4=O)NC(=O)NC3=O)cn2)o1 [Compound 1502]
